# Measured values: patent publication US7601733B2, “5(S)-(2′-hydroxyethoxy)-20(S)-camptothecin and its preparation and use for the treatment of cancer” (priority 2006, dated 2009)
# Assays:
# [1] = system: NCI-H460 xenografts; assay: NCI-H460 xenograft study in nude mice; assay type: in vivo; details: oral, (d×5)2 schedule, deaths/animals
# Procedure: Protocol of Comparison Study of 5(RS)-(2′-hydroxyethoxy)-20(S)-camptothecin and 5(S)-(2′-hydroxyethoxy)-20(S)-camptothecin Against NCl-H460 Xenograft in Nude Mice:
# Ti is the mean tumor volume.
# Percentage tumor growth inhibition was calculated using the formula: Percentage Tumor growth inhibition=100−% T/C.
# The other parameter observed was mortality.
# [2] = system: Human bone marrow mononuclear cells; assay: Human bone marrow assay (CFU-GM colony inhibition); assay type: cell-based; details: relative to 5(R) diastereoisomer
# Procedure: Protocol for Human Bone Marrow Assay:
# Methocult™ GF (Cat No: H4534, Poietics, Biowhittakar, USA) medium comprising Methycellulose in Iscove's MDM, Fetal bovine serum, Bovine serum albumin, 2-Mercaptoethanol, L-Glutamine, rhStem cell factor, rhGM-CSF and rhIL-3 was used for the assay. Human bone marrow mononuclear cells (Cat No. 2M-125C, Poietics, Biowhittakar, USA) were mixed with Methocult GF and the cell density was adjusted to 3×10^5 cells/ml. From this preparation, 500 μL aliquots were made and 2.5 μL of 20× drug solution or vehicle was added to each aliquot and mixed thoroughly. 100 μL of clonogenic medium was plated into each well and the plates were allowed to gel at 4° C. for 15 minutes. Plates were incubated at 37° C. in a fully humidified atmosphere of 5% CO2 in an incubator for 14 days. CFU-GM colonies were counted under an inverted microscope as aggregates of 50 cells or more. The percentage colony inhibition was calculated using the following formula: 100−[(number of colonies in drug treated wells/Number of colonies in control wells)×100].
# The in vitro potency of the two diastereomers against cancer cell lines had been compared with their in vitro toxicity in healthy cells.
# [3] = system: Saos-2 cells over expressing functional BCRP#4; assay type: cell-based, human
# Procedure: (§1) Protocol for Breast Cancer Resistance Protein (BCRP) Assay:
# (§2) The anticancer effect of 5(S)-(2′-hydroxyethoxy)-20(S)-camptothecin & 5(R)-(2′-hydroxyethoxy)-20(S)-camptothecin were evaluated versus the racemate 5(RS)-(2′-hydroxyethoxy)-20(S)-camptothecin on Saos-2 cells over expressing functional BCRP#4 and non-functional BCRP mut#10. The human osteosarcoma cell line, Saos-2, was obtained from ATCC (American Type Culture Collection, Cat#HTB-85, Manassas, Va.) and were maintained in DMEM containing 10% fetal bovine serum, 1% penicillin/streptomycin, and 2 mM glutamine. Saos-2 cells were transfected with either BCRP#4 to over express functional BCRP or BCRP#10 to over express non-functional BCRP transporter. The cells were plated in 96-well plates at a density of 1000 cells per each well in a 0.1 ml of medium and allowed to attach overnight. The next morning the medium was gently aspirated and serial dilutions of the compounds to be tested were added. The cells were incubated at 37° C. in a 5% CO2 incubator. […] The amount of the fluorescent dye produced was measured on a Cytofluor® 2300(Millipore, Bedford, Mass.) using an excitation wavelength of 530 nm and emission wavelength of 590 nm. The relative fluorescence units obtained were used to calculate the percentage growth at each concentration in relation to the untreated control values. […]
# [4] = system: Saos-2 cells over expressing non-functional BCRP mut#10; assay type: cell-based, human
# Procedure: as §1, §2
# [5] = cited from earlier work
Compound,Mortality ([1]; 2 mg/kg),Mortality ([1]; 4 mg/kg),safety margin (GI90/GI50) compared with that of the 5(R) diastereoisomer [2],fold more cytotoxic than 5(R)-(2′-hydroxyethoxy)-20(S)-camptothecin [3] [fold],fold more cytotoxic than 5(R)-(2′-hydroxyethoxy)-20(S)-camptothecin [4] [fold],water solubility [5]
"CC[C@@]1(O)C(=O)OCc2c1cc1n(c2=O)[C@@H](OCCO)c2cc3ccccc3nc2-1 [4-(S)-Ethyl-4-hydroxy-12(S)-(2-hydroxyethoxy)-1,12-dihydro-4H-2-oxa-6,12a-diazadibenzo[b,h] fluorene-3,13-dione]",0/5,0/5,over twice,> 2.5,~6,
"CC[C@@]1(O)C(=O)OCc2c1cc1n(c2=O)Cc2cc3ccccc3nc2-1 [camptothecin, Camptothecin]",,,,,,poorly water soluble
"CC[C@@]1(O)C(=O)OCc2c1cc1n(c2=O)C(OCCO)c2cc3ccccc3nc2-1 (mixture of isomers) [4(S)-Ethyl-4-hydroxy-12(RS)-(2-hydroxyethoxy)-1,12-dihydro-4H-2-oxa-6,12a-diaza-dibenzo[b,h]fluorine-3,13-dione, reference compound]",0/5,0/5,,,,
